One assay has as its system Candida albicans. Nature of the assay: Antifungal activity against Candida albicans. Type of assay: functional.
Assay [1] is described as follows: Inhibition of human serum classical complement system assessed as modulation of complement pathway by classical hemolytic complement assay.
Assay [2] in a line: Inhibition of human serum alternative complement system assessed as modulation of complement pathway by alternative hemolytic complement assay.
The test system of the next assay is Escherichia coli. The assay can be described thus: Antibacterial activity against Escherichia coli. Type of assay: functional.
The subject of a further assay is Staphylococcus aureus. The assay can be described thus: Antibacterial activity against Staphylococcus aureus. Type of assay: functional.
The next assay deals with Trichophyton rubrum. The assay can be described thus: Antifungal activity against Trichophyton rubrum. Type of assay: functional.
For another assay, the system named is Bacillus cereus. Nature of the assay: Antibacterial activity against Bacillus cereus. Type of assay: functional.
Assay [3] is described as follows: Growth inhibition of human NCI60 cells. The class given is functional.
Another assay deals with Aspergillus niger. Nature of the assay: Antifungal activity against Aspergillus niger. The class given is functional.
For another assay, the system named is Pseudomonas aeruginosa. Nature of the assay: Antibacterial activity against Pseudomonas aeruginosa. Type of assay: functional.
Another assay relates to SF-295. Nature of the assay: Growth inhibition of human SF295 cells. The class given is functional.
For the next assay, the system named is Human alphaherpesvirus 1. Nature of the assay: Antiviral activity against HSV1 assessed as reduction factor of viral titer at 100 ug/ml. The class given is functional, organism-based.
Assay [4] is described as follows: Inhibition of human serum classical complement system assessed as modulation of complement pathway at 420 uM by classical hemolytic complement assay.

The source made the active and inactive calls.

For `CC(C)C1=CC(=O)[C@](C)([C@H]2[C@H](O)C[C@@]3(C)[C@@H]4CC=C5[C@@H](CC[C@@H](O[C@@H]6OC[C@@H](O)[C@H](O)[C@H]6O[C@@H]6O[C@@H](C)[C@H](O)[C@@H](O)[C@H]6O)C5(C)C)[C@]4(C)C(=O)C[C@]23C)O1` [PICFELTARRACEMIN IA], the MIC against Candida albicans, with Escherichia coli, against Staphylococcus aureus, against Trichophyton rubrum, against Bacillus cereus and in the assay with Aspergillus niger was over 100 µg/mL throughout. The MIC – broadly, the smallest concentration in the dilution series that meets the test's criterion for growth inhibition – against Pseudomonas aeruginosa was over 100 µg/mL. Also, the Activity result in assay [1] and in [2] was “Dose-dependent effect” each time. Also, the half-inhibitory concentration (IC50) (as a rule, the point on the concentration scale where inhibition reaches its midpoint) in assay [1] is 95 µM; in assay [2], 336 µM. For the same molecule, the GI50 (as a rule, the concentration at which growth is held to half of that of the control) was over 100 µM in assay [3] and 59 µM in the assay on SF-295. In addition, in assay [3], the TGI (commonly the concentration giving total growth inhibition) was over 100 µM. Moreover, the result in the assay with Human alphaherpesvirus 1 was Active.
For the molecule `CC(C)C1=CC(=O)[C@](C)([C@H]2[C@H](O)C[C@@]3(C)[C@@H]4CC=C5[C@@H](CC[C@@H](O[C@@H]6O[C@H](CO)[C@@H](O)[C@H](O)[C@H]6O[C@@H]6O[C@@H](C)[C@H](O)[C@@H](O)[C@H]6O)C5(C)C)[C@]4(C)C(=O)C[C@]23C)O1` [PICFELTARRACEMIN IB], the minimal inhibitory concentration (MIC) with Candida albicans, in the assay with Escherichia coli, against Staphylococcus aureus, against Trichophyton rubrum, against Bacillus cereus and against Aspergillus niger was over 100 µg/mL in each case. This molecule displayed an MIC in the assay on Pseudomonas aeruginosa of over 100 µg/mL. For the same molecule, the Activity result in [1] and in assay [2] was “Dose-dependent effect” throughout. The IC50 was over 420 µM in [1] and 68 µM in assay [2]. For the same molecule, the GI50 in assay [3] is over 100 µM. Moreover, the total growth inhibition concentration (TGI) in assay [3] is over 100 µM. In assay [4], the inhibition (as a rule, the percentage by which the read-out fell short of the control) was found to be 48%. The outcome with Human alphaherpesvirus 1 was Active.
As for `CC(C)C1=CC(=O)[C@](C)([C@H]2[C@H](O)C[C@@]3(C)[C@@H]4CC=C5[C@@H](CC[C@@H](O[C@@H]6OC[C@@H](O)[C@H](O[C@@H]7O[C@H](CO)[C@@H](O)[C@H](O)[C@H]7O[C@@H]7O[C@@H](C)[C@H](O)[C@@H](O)[C@H]7O)[C@H]6O)C5(C)C)[C@]4(C)C(=O)C[C@]23C)O1` [PICFELTARRACEMIN IV], the MIC against Candida albicans, with Escherichia coli, against Staphylococcus aureus, in the assay with Trichophyton rubrum, against Bacillus cereus and in the assay with Aspergillus niger was over 100 µg/mL in each case. Further, the MIC in the assay on Pseudomonas aeruginosa was over 100 µg/mL. Also, the Activity result in assay [1] and in [2] was “Dose-dependent effect” each time. Further, the IC50 in assay [1] stood at 131 µM; in assay [2], 313 µM. For the same molecule, in the assay on Human alphaherpesvirus 1, the result was Active.
For the molecule `CC(C)C1=CC(=O)[C@](C)([C@H]2[C@H](O)C[C@@]3(C)[C@@H]4CC=C5[C@@H](CC[C@@H](O[C@@H]6OC[C@@H](O)[C@H](O)[C@H]6O)C5(C)C)[C@]4(C)C(=O)C[C@]23C)O1` [PICFELTARRACEMIN VI], the MIC against Candida albicans, against Escherichia coli, against Staphylococcus aureus, in the assay on Trichophyton rubrum, in the assay with Bacillus cereus and against Aspergillus niger was over 100 µg/mL in each case. Besides, in the assay on Pseudomonas aeruginosa, the MIC is over 100 µg/mL. In addition, the Activity result in assay [1] and in [2] was “Dose-dependent effect” each time. In addition, the IC50 in [1] stood at 29 µM; in assay [2], 21 µM. The outcome in the assay with Human alphaherpesvirus 1 was Active.
Take `O=C(/C=C/c1ccc(O)c(O)c1)O[C@H](Cc1ccc(O)c(O)c1)C(=O)O` [ROSMARINIC ACID]: the half-inhibitory concentration (IC50) is 81 µM in assay [1] and 408 µM in assay [2].

The values above are taken from ChEMBL document CHEMBL1150903, “Complement-inhibiting cucurbitacin glycosides from Picria fel-terrae” (J Nat Prod, 1998).
